Source: PubChem BioAssay AID330 (DTP/NCI, 2004)
“And” between values parts separate entries of the source, which are not always exact repeats. Equal values may be shown once. Toxic doses and inconclusive results are not listed. How the source made its calls: active means survival T/C of 150% or more; inactive means T/C below 125% in these data.

Tested on: P388 leukemia ip, CD2F1 mice, survival T/C
Assay: NCI In Vivo Anticancer Drug Screen. Data for tumor model P388 Leukemia (intraperitoneal) in CD2F1 (CDF1) mice
Details: endpoint: median survival time, higher = longer survival
Outline: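 Mice carrying the transplanted tumor received test compound or vehicle. Survival was recorded in each group, and the value is the treated-group measurement divided by that of the vehicle-treated control group.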

[1] = dose: 60.0 mg/kg/injection, schedule: Q01DX005 (ip), vehicle: saline with Tween-80
[2] = dose: 120.0 mg/kg/injection, schedule: Q01DX005 (ip), vehicle: saline with Tween-80
[3] = dose: 240.0 mg/kg/injection, schedule: Q01DX005 (ip), vehicle: saline with Tween-80
[4] = dose: 50.0 mg/kg/injection, schedule: Q01DX009 (ip), vehicle: Klucel (hydroxypropylcellulose) (HPC)
[5] = dose: 100.0 mg/kg/injection, schedule: Q01DX009 (ip), vehicle: Klucel (hydroxypropylcellulose) (HPC)
[6] = dose: 200.0 mg/kg/injection, schedule: Q01DX009 (ip), vehicle: Klucel (hydroxypropylcellulose) (HPC)
[7] = dose: 60.0 mg/kg/injection, schedule: Q01DX005 (ip), vehicle: Klucel (hydroxypropylcellulose) (HPC)
[8] = dose: 120.0 mg/kg/injection, schedule: Q01DX005 (ip), vehicle: Klucel (hydroxypropylcellulose) (HPC)
[9] = dose: 240.0 mg/kg/injection, schedule: Q01DX005 (ip), vehicle: Klucel (hydroxypropylcellulose) (HPC)
[10] = dose: 60.0 mg/kg/injection, schedule: Q01DX005 (ip), vehicle: saline
[11] = dose: 100.0 mg/kg/injection, schedule: Q01DX001 (ip), vehicle: saline with Tween-80
[12] = dose: 200.0 mg/kg/injection, schedule: Q01DX001 (ip), vehicle: saline with Tween-80
[13] = dose: 50.0 mg/kg/injection, schedule: Q01DX005 (ip), vehicle: Klucel (hydroxypropylcellulose) (HPC)
[14] = dose: 100.0 mg/kg/injection, schedule: Q01DX005 (ip), vehicle: Klucel (hydroxypropylcellulose) (HPC)

Measured: T/C

CCOC(=O)Nc1cc2c(c(N)n1)N=C(c1ccccc1)C(C)N2 (configuration not stated)
active: dose: 1.0 mg/kg/injection, schedule: Q01DX005 (ip), vehicle: saline 171 % of control
inactive: dose: 0.5 mg/kg/injection, schedule: Q01DX005 (ip), vehicle: saline 123 % of control | dose: 0.75 mg/kg/injection, schedule: Q01DX005 (ip), vehicle: saline 121 % of control

CCCNC(c1ccc(N(CC)CC)cc1)C(Cl)(Cl)Cl (configuration not stated)
inactive: dose: 50.0 mg/kg/injection, schedule: Q01DX005 (ip), vehicle: saline 103 % of control | dose: 100.0 mg/kg/injection, schedule: Q01DX005 (ip), vehicle: saline 106 % of control | dose: 200.0 mg/kg/injection, schedule: Q01DX005 (ip), vehicle: saline 96 % of control

CCC[CH2][Sn]1([CH2]CCC)[O]c2ccccc2[O]1
inactive: dose: 0.39 mg/kg/injection, schedule: Q01DX005 (ip), vehicle: saline with Tween-80 103 % of control | dose: 0.78 mg/kg/injection, schedule: Q01DX005 (ip), vehicle: saline with Tween-80 106 % of control | dose: 1.56 mg/kg/injection, schedule: Q01DX005 (ip), vehicle: saline with Tween-80 109 % of control and 124 % of control | dose: 3.12 mg/kg/injection, schedule: Q01DX005 (ip), vehicle: Klucel (hydroxypropylcellulose) (HPC) 100 % of control | dose: 3.12 mg/kg/injection, schedule: Q01DX005 (ip), vehicle: saline with Tween-80 123 % of control | dose: 6.25 mg/kg/injection, schedule: Q01DX005 (ip), vehicle: Klucel (hydroxypropylcellulose) (HPC) 105 % of control | dose: 12.5 mg/kg/injection, schedule: Q01DX005 (ip), vehicle: Klucel (hydroxypropylcellulose) (HPC) 107 % of control

CC(=O)C1(O)CCC2(O)C3(O)CC=C4CC(O)CCC4(C)C3CC(OC(=O)c3ccc(O)cc3)C12C (configuration not stated)
inactive: dose: 11.75 mg/kg/injection, schedule: Q01DX005 (ip), vehicle: distilled water + Tween-80 + alcohol 93 % of control | dose: 23.5 mg/kg/injection, schedule: Q01DX005 (ip), vehicle: distilled water + Tween-80 + alcohol 94 % of control | dose: 47.0 mg/kg/injection, schedule: Q01DX005 (ip), vehicle: distilled water + Tween-80 + alcohol 95 % of control | dose: 94.0 mg/kg/injection, schedule: Q01DX005 (ip), vehicle: distilled water + Tween-80 + alcohol 94 % of control

CCC(CC)(COS(C)(=O)=O)COS(C)(=O)=O
inactive: dose: 50.0 mg/kg/injection, schedule: Q01DX009 (ip), vehicle: saline with Tween-80 104 % of control | dose: 100.0 mg/kg/injection, schedule: Q01DX009 (ip), vehicle: saline with Tween-80 101 % of control | dose: 200.0 mg/kg/injection, schedule: Q01DX009 (ip), vehicle: saline with Tween-80 90 % of control | dose: 400.0 mg/kg/injection, schedule: Q01DX009 (ip), vehicle: saline with Tween-80 89 % of control

CC1(C)CC(O)C2OC2(C)C1 (configuration not stated)
inactive: dose: 50.0 mg/kg/injection, schedule: Q01DX009 (ip), vehicle: saline 94 % of control | dose: 100.0 mg/kg/injection, schedule: Q01DX009 (ip), vehicle: saline 89 % of control | dose: 200.0 mg/kg/injection, schedule: Q01DX009 (ip), vehicle: saline 101 % of control

O=C(CC1=NC2NN(c3ccccc3)C(=O)C2=C1CC(=O)c1ccc([N+](=O)[O-])cc1)c1ccc([N+](=O)[O-])cc1 (configuration not stated)
inactive: [1] 99 % of control | [2] 105 % of control | [3] 104 % of control

CCOC(=O)c1cc2c(nc1C)-c1cc(Cl)ccc1OC2OCc1ccccc1 (configuration not stated)
inactive: [1] 88 % of control | [2] 94 % of control | [3] 97 % of control

CCOC(=O)CNC(=O)Nc1ccc(S(=O)(=O)Nc2nc(C)cc(C)n2)cc1
inactive: [4] 102 % of control | [5] 100 % of control | [6] 100 % of control

[C-]#[N+]N=P(c1ccccc1)(c1ccccc1)c1ccccc1
inactive: [7] 107 % of control | [8] 114 % of control | [9] 122 % of control

ClCCCCOCBr
inactive: [10] 93 % of control | dose: 240.0 mg/kg/injection, schedule: Q01DX005 (ip), vehicle: saline 87 % of control

CCCCCc1nc(N)nc(-c2nc(N)nc(CCCCC)c2C)c1C
inactive: [10] 96 % of control | dose: 120.0 mg/kg/injection, schedule: Q01DX005 (ip), vehicle: saline 100 % of control

O=c1[nH]c2c([N+](=O)[O-])cc(Cl)cc2nc1/C=C(\O)c1ccncc1
inactive: [7] 102 % of control | [8] 99 % of control

CC1(c2ccccc2)NN(S(=O)(=O)c2ccccc2)C(c2ccccc2)(c2ccccc2)/C1=N/Nc1ccccc1 (configuration not stated)
inactive: dose: 50.0 mg/kg/injection, schedule: Q01DX001 (ip), vehicle: saline with Tween-80 93 % of control | [11] 88 % of control | [12] 89 % of control

CC(C)(C)[Si](C)(C)OC[C@@H]1OC=CC(=O)[C@H]1O
inactive: [13] 102 % of control | [14] 94 % of control | dose: 200.0 mg/kg/injection, schedule: Q01DX005 (ip), vehicle: Klucel (hydroxypropylcellulose) (HPC) 101 % of control

COC(=O)c1c([As](C)C)n[n]([Sn]([CH3])([CH3])[CH3])c1C(=O)OC
inactive: dose: 6.25 mg/kg/injection, schedule: Q04DX003 (ip), vehicle: saline 88 % of control | dose: 12.5 mg/kg/injection, schedule: Q04DX003 (ip), vehicle: saline 99 % of control

C[C@]12CCC(=O)C(O)=C1CC[C@@H]1[C@@H]2CC[C@]2(C)C(=O)CC[C@@H]12
inactive: dose: 12.5 mg/kg/injection, schedule: Q01DX009 (ip), vehicle: Klucel (hydroxypropylcellulose) (HPC) 111 % of control and 96 % of control | dose: 25.0 mg/kg/injection, schedule: Q01DX009 (ip), vehicle: Klucel (hydroxypropylcellulose) (HPC) 100 % of control and 111 % of control | [4] 105 % of control and 106 % of control | [5] 92 % of control and 93 % of control | [6] 92 % of control and 96 % of control | dose: 400.0 mg/kg/injection, schedule: Q01DX009 (ip), vehicle: Klucel (hydroxypropylcellulose) (HPC) 111 % of control and 88 % of control

O/N=C(/CC(c1ccccc1)N1CCOCC1)c1ccccc1 (configuration not stated)
inactive: [13] 93 % of control | [14] 90 % of control

CSCC1Cc2ccccc2N=C(c2ccccc2)O1 (configuration not stated)
inactive: [11] 100 % of control | [12] 97 % of control | dose: 400.0 mg/kg/injection, schedule: Q01DX001 (ip), vehicle: saline with Tween-80 100 % of control

NC1CCc2cc(O)c(O)cc2C1 (configuration not stated)
inactive: dose: 100.0 mg/kg/injection, schedule: Q04DX002 (ip), vehicle: saline 108 % of control and 96 % of control | dose: 200.0 mg/kg/injection, schedule: Q04DX002 (ip), vehicle: saline 105 % of control and 109 % of control | dose: 400.0 mg/kg/injection, schedule: Q04DX002 (ip), vehicle: saline 109 % of control

O=C1CCC(=O)N1CN(CS(=O)(=O)c1ccc(Cl)cc1)c1ccc(Cl)cc1
inactive: [7] 90 % of control | [8] 88 % of control | [9] 90 % of control
